Measurements published in PubChem BioAssay (NCI).
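Results reflect a 48-hour exposure of cells in 96-well plates to compound at five concentrations. TGI: total growth inhibition.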

Legend:
Assay in all cases: DTP human tumour cell line panel, 48 h
MDA-N = tested on: MDA-N
PC-3 prostate = tested on: PC-3 prostate
MDA-MB-435 = tested on: MDA-MB-435
RXF 393 renal = tested on: RXF 393 renal
CAKI-1 renal = tested on: CAKI-1 renal
OVCAR-8 ovarian = tested on: OVCAR-8 ovarian
CCRF-CEM leukemia = tested on: CCRF-CEM leukemia
UACC-62 melanoma = tested on: UACC-62 melanoma
NCI-H226 lung = tested on: NCI-H226 lung
SF-295 CNS = tested on: SF-295 CNS
UO-31 renal = tested on: UO-31 renal
HT29 colon = tested on: HT29 colon
HCT-116 colon = tested on: HCT-116 colon
SK-MEL-5 melanoma = tested on: SK-MEL-5 melanoma
NCI-H522 lung = tested on: NCI-H522 lung
M14 melanoma = tested on: M14 melanoma
T-47D breast = tested on: T-47D breast
MCF7 breast = tested on: MCF7 breast
SN12C renal = tested on: SN12C renal
OVCAR-5 ovarian = tested on: OVCAR-5 ovarian
MALME-3M melanoma = tested on: MALME-3M melanoma
U251 CNS = tested on: U251 CNS
SK-MEL-2 melanoma = tested on: SK-MEL-2 melanoma
SNB-75 CNS = tested on: SNB-75 CNS
786-0 renal = tested on: 786-0 renal
IGROV1 ovarian = tested on: IGROV1 ovarian
HOP-62 NSCLC = tested on: HOP-62 NSCLC
LOX IMVI melanoma = tested on: LOX IMVI melanoma
NCI-H23 lung = tested on: NCI-H23 lung
COLO 205 colon = tested on: COLO 205 colon
A498 renal = tested on: A498 renal
KM12 colon = tested on: KM12 colon
DU-145 prostate = tested on: DU-145 prostate
HCT-15 colon = tested on: HCT-15 colon
EKVX NSCLC = tested on: EKVX NSCLC
NCI/ADR-RES ovarian = tested on: NCI/ADR-RES ovarian
SNB-19 CNS = tested on: SNB-19 CNS
TK-10 renal = tested on: TK-10 renal
HS 578T breast = tested on: HS 578T breast
SK-OV-3 ovarian = tested on: SK-OV-3 ovarian
UACC-257 melanoma = tested on: UACC-257 melanoma
SW-620 colon = tested on: SW-620 colon
MDA-MB-231 breast = tested on: MDA-MB-231 breast
A549 NSCLC = tested on: A549 NSCLC
HCC-2998 colon = tested on: HCC-2998 colon
RPMI-8226 leukemia = tested on: RPMI-8226 leukemia
SF-539 CNS = tested on: SF-539 CNS
SK-MEL-28 melanoma = tested on: SK-MEL-28 melanoma
SF-268 CNS = tested on: SF-268 CNS
ACHN renal = tested on: ACHN renal
HOP-92 NSCLC = tested on: HOP-92 NSCLC
OVCAR-4 ovarian = tested on: OVCAR-4 ovarian
MOLT-4 leukemia = tested on: MOLT-4 leukemia
NCI-H460 lung = tested on: NCI-H460 lung
HL-60(TB) leukemia = tested on: HL-60(TB) leukemia
K-562 leukemia = tested on: K-562 leukemia
SR leukemia = tested on: SR leukemia
OVCAR-3 ovarian = tested on: OVCAR-3 ovarian

SMILES: CC(=O)CC1(C)OC(N)=C(C#N)C1(C#N)C#N (stereo unspecified)
- TGI (MDA-N): > 100 µM
- TGI (PC-3 prostate): > 100 µM
- TGI (MDA-MB-435): > 100 µM
- TGI (RXF 393 renal): > 100 µM
- TGI (CAKI-1 renal): > 100 µM
- TGI (OVCAR-8 ovarian): > 100 µM
- TGI (CCRF-CEM leukemia): > 100 µM
- TGI (UACC-62 melanoma): > 100 µM
- TGI (NCI-H226 lung): > 100 µM
- TGI (SF-295 CNS): > 100 µM
- TGI (UO-31 renal): > 100 µM
- TGI (HT29 colon): > 100 µM
- TGI (HCT-116 colon): > 100 µM
- TGI (SK-MEL-5 melanoma): > 100 µM
- TGI (NCI-H522 lung): > 100 µM
- TGI (M14 melanoma): > 100 µM
- TGI (T-47D breast): > 100 µM
- TGI (MCF7 breast): > 100 µM
- TGI (SN12C renal): > 100 µM
- TGI (OVCAR-5 ovarian): > 100 µM
- TGI (MALME-3M melanoma): > 100 µM
- TGI (U251 CNS): > 100 µM
- TGI (SK-MEL-2 melanoma): > 100 µM
- TGI (SNB-75 CNS): > 100 µM
- TGI (786-0 renal): > 100 µM
- TGI (IGROV1 ovarian): > 100 µM
- TGI (HOP-62 NSCLC): > 100 µM
- TGI (LOX IMVI melanoma): > 100 µM
- TGI (NCI-H23 lung): > 100 µM
- TGI (COLO 205 colon): > 100 µM
- TGI (A498 renal): > 100 µM
- TGI (KM12 colon): > 100 µM
- TGI (DU-145 prostate): > 100 µM
- TGI (HCT-15 colon): > 100 µM
- TGI (EKVX NSCLC): > 100 µM
- TGI (NCI/ADR-RES ovarian): > 100 µM
- TGI (SNB-19 CNS): > 100 µM
- TGI (TK-10 renal): > 100 µM
- TGI (HS 578T breast): > 100 µM
- TGI (SK-OV-3 ovarian): > 100 µM
- TGI (UACC-257 melanoma): > 100 µM
- TGI (SW-620 colon): > 100 µM
- TGI (MDA-MB-231 breast): > 100 µM
- TGI (A549 NSCLC): > 100 µM
- TGI (HCC-2998 colon): > 100 µM
- TGI (RPMI-8226 leukemia): > 100 µM
- TGI (SF-539 CNS): > 100 µM
- TGI (SK-MEL-28 melanoma): > 100 µM
- TGI (SF-268 CNS): > 100 µM
- TGI (ACHN renal): > 100 µM
- TGI (HOP-92 NSCLC): > 100 µM

SMILES: C=C[C@@](C)(/C=C/c1ccc(O)cc1)CCC=C(C)C
- TGI (MDA-N): 31 µM
- TGI (PC-3 prostate): 30.4 µM
- TGI (MDA-MB-435): 33.9 µM
- TGI (CAKI-1 renal): 32.6 µM
- TGI (OVCAR-8 ovarian): 35.2 µM
- TGI (CCRF-CEM leukemia): 31 µM
- TGI (NCI-H226 lung): 35.4 µM
- TGI (SF-295 CNS): 34.4 µM
- TGI (OVCAR-4 ovarian): 28.6 µM
- TGI (UO-31 renal): 32.4 µM
- TGI (HT29 colon): 32.8 µM
- TGI (HCT-116 colon): 32.2 µM
- TGI (SK-MEL-5 melanoma): 30.7 µM
- TGI (NCI-H522 lung): 30.9 µM
- TGI (M14 melanoma): 35.3 µM
- TGI (T-47D breast): 28.7 µM
- TGI (MCF7 breast): 35.2 µM
- TGI (SN12C renal): 35.3 µM
- TGI (MOLT-4 leukemia): 28 µM
- TGI (OVCAR-5 ovarian): 33.5 µM
- TGI (U251 CNS): 30.6 µM
- TGI (SK-MEL-2 melanoma): 37.3 µM
- TGI (SNB-75 CNS): 26.9 µM
- TGI (IGROV1 ovarian): 30.5 µM
- TGI (HOP-62 NSCLC): 33.8 µM
- TGI (LOX IMVI melanoma): 32.2 µM
- TGI (NCI-H23 lung): 30.4 µM
- TGI (COLO 205 colon): 33.1 µM
- TGI (A498 renal): 35.6 µM
- TGI (DU-145 prostate): 26.1 µM
- TGI (HCT-15 colon): 32.7 µM
- TGI (NCI-H460 lung): 29.2 µM
- TGI (NCI/ADR-RES ovarian): 31 µM
- TGI (SNB-19 CNS): 34.7 µM
- TGI (TK-10 renal): 32.3 µM
- TGI (HS 578T breast): 46.9 µM
- TGI (HL-60(TB) leukemia): 29.7 µM
- TGI (SK-OV-3 ovarian): 30 µM
- TGI (UACC-257 melanoma): 31.9 µM
- TGI (SW-620 colon): 34 µM
- TGI (MDA-MB-231 breast): 35.8 µM
- TGI (K-562 leukemia): 29.9 µM
- TGI (A549 NSCLC): 35.1 µM
- TGI (SR leukemia): 32.1 µM
- TGI (HCC-2998 colon): 35.5 µM
- TGI (RPMI-8226 leukemia): 32.3 µM
- TGI (OVCAR-3 ovarian): 32.2 µM
- TGI (SK-MEL-28 melanoma): 35.7 µM
- TGI (ACHN renal): 22.4 µM
- TGI (HOP-92 NSCLC): 32 µM
